In test [1] the target is T1, CDK7/CyclinH/MAT1 (Homo sapiens, UniProt P50613).
T1 construct: purchased Carna Biosciences
Nature of the test: LanthaScreen Eu Kinase Binding Assay, CDK7. The following applies: tracer 236, read-out: CDK7 (activity range), Kd. As for the experimental part:
(§1) This protocol describes how the LanthaScreen Eu Kinase Binding Assay was performed to determine dissociation constants (Kd) of compounds of general formula (I) and CDK/Cyclin complexes. The principle behind this assay is based upon the binding and displacement of an Alexa Fluor 647-labeled tracer, which binds to the active site of kinases. Binding of the tracer to the kinase is detected using a Eu-labeled antibody. Simultaneous binding of both the tracer and antibody to the kinase gives rise to a FRET-signal. Binding of an inhibitor to the kinase competes for binding with the tracer, resulting in a loss of FRET.
(§2) The compounds of general formula (I) summarized in Table 1 were diluted from a 10 mM DMSO stock solution 1:10 in a total volume of 15 μL DMSO. This compound predilution was then serial diluted 1:3 over 8 steps in DMSO and briefly spun down. Each compound solution was now diluted 1:33.33 in kinase buffer (HEPES: 20 mM, pH: 8.0; MgCl2: 10 mM; DTT: 1 mM; Brij-35: 0.01%), mixed thoroughly and spun down. For every sample, 5 μL of the diluted compound were mixed with 5 μL tracer working solution (e.g. 60 nM tracer 236 in kinase buffer for CDK2/Cyclin A) and 5 μL CDK/Cyclin/Anti-GST-AB-working solution (e.g. 15 nM CDK2/Cyclin A, 1:250 dilution of Anti-GST-AB in kinase buffer) in a well of a small volume 384 well plate (Corning Incorporated, Corning, N.Y., USA; order no. 3673). The tracer concentration was adjusted to its dissociation constant (Kd) for the CDK/Cyclin, which was 30 nM for CDK2/Cyclin A, CDK7/Cyclin H and CDK9/Cyclin T1, 20 nM for CDK8/Cyclin C, and 35 nM for CDK9/Cyclin K. For negative controls, in each well 5 μL of DMSO working solution (3% DMSO diluted in kinase buffer) was mixed with 5 μL Anti-GST-AB working solution (e.g. 1:250 dilution of Anti-GST-AB in kinase buffer for CDK2/Cyclin A) and 5 μL Tracer working solution (e.g. 60 nM Tracer 236 in kinase buffer for CDK2/Cyclin A). For positive controls, in each well 5 μL of DMSO working solution (3% DMSO diluted in kinase buffer) was mixed with 5 μL CDK/Cyclin/Anti-GST-AB-working solution: (e.g. 15 nM CDK2/Cyclin A, 1:250 dilution of Anti-GST-AB in kinase buffer) and 5 μL Tracer working solution (e.g. 60 nM Tracer 236 in kinase buffer for CDK2/Cyclin A). Positive and negative controls were calculated from at least 8 different sample wells. The 384 well plates were mixed in a Teleshaker plate mixer (Beckman Coulter, Brea, Calif., USA) at 2000 rpm for 40 sec, and incubated for 1 h at room temperature before reading. The FRET signal was measured at 340 nm excitation, 665 nm and 615 nm emission (for the kinase tracer and LanthaScreen Eu-AB, respectively) with an Envision spectrophotometer (Perkin Elmer, Waltham, Mass., USA) with 50 μs delay and 300 μs integration time. Kd values were determined from the sigmoidal dose response curves with the software Quattro Workflow (Quattro GmbH, Munich, Germany).

The target in the next test is T2, CDK9 (Homo sapiens, UniProt P50750).
T2 construct: purchased Invitrogen
The experiment in a line: Lance Ultra KinaSelect Assay, CDK9. The class given is biochemical. The following applies: ULight MBP substrate; cyclin partner not stated in Table 5; read-out: CDK9 LANCE assay (activity range), IC50. Here is the method: (§3) This protocol describes how the Lance Ultra KinaSelect Assay was performed to determine half maximal inhibitory concentration (IC50) of compounds of general formula (I) and CDK/Cyclin complexes. The principle behind this enzymatic assay is based upon the phosphorylation of the ULight-Peptide Substrat. It is detected by using a specific EU-labeled anti-phospho peptide antibody. The binding of the Eu-labeled anti-phospho peptide antibody to the phosphorylated ULight labeled peptide gives rise to a FRET-signal. Binding of an inhibitor to the kinase prevents phosphorylation of the ULight-MBP Substrat, resulting in a loss of FRET.
(§4) The compounds of general formula (I) summarized in Table 5 were diluted from a 10 mM DMSO stock solution 1:10 in a total volume of 15 μL DMSO. This compound predilution was then serial diluted 1:3 over 8 steps in DMSO and briefly spun down. Each compound solution was now diluted 1:20 in Enzymatic Buffer (HEPES: 50 mM, pH: 7.5; MgCl2: 10 mM; EGTA: 1 mM; DTT: 2 mM; Tween-20: 0.01%), mixed thoroughly and spun down. For every sample, 2 μL of the diluted compound were mixed with 6 μL CDK/Cyclin/Substrat solution and 2 μL ATP solution in a well of a small volume 384 well plate (Corning Incorporated, Corning, N.Y., USA; order no. 3673). The CDK/Cyclin was diluted to the appropriate concentration (see Table 3) and the ATP concentration was adjusted to its […] for the CDK/Cyclin, which was 3 μM for CDK2/Cyclin A, 20 μM for CDK1/Cyclin B1, 25 μM for CDK7/Cyclin H and CDK9/Cyclin T1, 55 μM for CDK6/Cyclin D3, 90 μM for CDK4/Cyclin D1 and 125 μM for CDK9/Cyclin K. For negative controls, in each well 2 μL of DMSO solution (1% final DMSO assay concentration) was mixed with 6 μL substrate solution (50 nM ULight MBP final assay concentration) and 2 μL ATP solution (appropriate final concentration see Table 3). For positive controls, in each well 2 μL of DMSO solution (1% final DMSO assay concentration) was mixed with 6 μL CDK/Cyclin/Substrat (appropriate final concentration see Table 3) and 2 μL Tracer ATP solution (appropriate final concentration see Table 3). Positive and negative controls were calculated from at least 8 different sample wells. The 384 well plates were mixed in a Teleshaker plate mixer (Beckman Coulter, Brea, Calif., USA) at 2000 rpm for 40 sec, and incubated for 1 h at room temperature. Before reading, 10 μL the detection buffer (Lance Detection Buffer 1×; EDTA: […]; Eu-Anti-P-MBP: see Table 3) was added. The FRET signal was measured at 340 nm excitation, 665 nm and 615 nm emission (for the kinase tracer and LanthaScreen Eu-AB, respectively) with an Envision spectrophotometer (Perkin Elmer, Waltham, Mass., USA) with 50 μs delay and 300 μs integration time. IC50 values were determined from the sigmoidal dose response curves with the software Quattro Workflow (Quattro GmbH, Munich, Germany).

Test [2] concerns the target T3, CDK2/CyclinA (Homo sapiens, UniProt P24941).
T3 construct: purchased Proqinase
The experiment in a line: LanthaScreen Eu Kinase Binding Assay, CDK2. The following applies: tracer 236, read-out: CDK2 (activity range), Kd. Here is the method:
as §1, §2
For orientation: TR-FRET usually uses a lanthanide donor and a delayed reading to cut background.

The target of a further test is T4, CDK9/Cyclin T1 (Homo sapiens, UniProt P50750).
T4 construct: purchased Invitrogen
Nature of the test: LanthaScreen Eu Kinase Binding Assay, CDK9/Cyclin T1. The following applies: tracer 236, read-out: CDK9/Cyclin T1 (activity range), Kd. Here is the method:
as §1, §2

In test [3] the target is T3, CDK2/CyclinA. The experiment in a line: Lance Ultra KinaSelect Assay, CDK2. The class given is biochemical. The following applies: ULight MBP substrate, ATP 3 μM; read-out: CDK2 LANCE assay (activity range), IC50. Here is the method:
as §3, §4

The target of test [4] is T1, CDK7/CyclinH/MAT1. The experiment in a line: Lance Ultra KinaSelect Assay, CDK7. The format is biochemical. The following applies: ULight MBP substrate, ATP 25 μM; read-out: CDK7 LANCE assay (activity range), IC50. As for the experimental part:
as §3, §4

In patent publication US9242937B2, “Pharmaceutically active disubstituted pyridine derivatives” (Bayer Intellectual Property GmbH, priority 2011, dated 2016) one finds Kd and IC50 data, which are given here for 3 compounds.

T1 sequence (P50613 whole entry): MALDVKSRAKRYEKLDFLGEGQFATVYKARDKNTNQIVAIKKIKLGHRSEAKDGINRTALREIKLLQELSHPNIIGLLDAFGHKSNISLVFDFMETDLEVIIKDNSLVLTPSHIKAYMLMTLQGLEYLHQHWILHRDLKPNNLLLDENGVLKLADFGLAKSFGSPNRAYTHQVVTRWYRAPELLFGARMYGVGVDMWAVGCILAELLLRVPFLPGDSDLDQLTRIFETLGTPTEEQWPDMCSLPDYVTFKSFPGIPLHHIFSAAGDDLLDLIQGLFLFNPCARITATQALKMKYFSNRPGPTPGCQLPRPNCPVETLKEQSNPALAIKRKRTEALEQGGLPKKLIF
T1 sequence (P51946 whole entry partner): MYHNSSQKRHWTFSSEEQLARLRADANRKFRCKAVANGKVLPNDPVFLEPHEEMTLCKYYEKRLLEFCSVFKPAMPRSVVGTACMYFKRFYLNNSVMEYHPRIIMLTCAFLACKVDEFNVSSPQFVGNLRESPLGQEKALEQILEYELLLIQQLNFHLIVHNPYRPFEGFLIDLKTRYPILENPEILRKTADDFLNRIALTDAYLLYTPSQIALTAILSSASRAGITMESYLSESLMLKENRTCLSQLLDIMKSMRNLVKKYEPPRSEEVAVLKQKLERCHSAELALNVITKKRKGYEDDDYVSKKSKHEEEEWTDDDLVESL
T1 sequence (P51948 whole entry partner): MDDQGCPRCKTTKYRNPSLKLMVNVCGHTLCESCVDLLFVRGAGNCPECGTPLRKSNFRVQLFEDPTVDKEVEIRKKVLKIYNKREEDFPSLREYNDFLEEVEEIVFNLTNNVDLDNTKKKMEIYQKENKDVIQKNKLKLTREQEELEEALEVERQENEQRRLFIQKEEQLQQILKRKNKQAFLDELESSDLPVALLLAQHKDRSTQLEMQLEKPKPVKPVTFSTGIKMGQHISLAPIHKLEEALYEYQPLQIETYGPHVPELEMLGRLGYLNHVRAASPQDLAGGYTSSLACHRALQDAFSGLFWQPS
T4 sequence (P50750 whole entry): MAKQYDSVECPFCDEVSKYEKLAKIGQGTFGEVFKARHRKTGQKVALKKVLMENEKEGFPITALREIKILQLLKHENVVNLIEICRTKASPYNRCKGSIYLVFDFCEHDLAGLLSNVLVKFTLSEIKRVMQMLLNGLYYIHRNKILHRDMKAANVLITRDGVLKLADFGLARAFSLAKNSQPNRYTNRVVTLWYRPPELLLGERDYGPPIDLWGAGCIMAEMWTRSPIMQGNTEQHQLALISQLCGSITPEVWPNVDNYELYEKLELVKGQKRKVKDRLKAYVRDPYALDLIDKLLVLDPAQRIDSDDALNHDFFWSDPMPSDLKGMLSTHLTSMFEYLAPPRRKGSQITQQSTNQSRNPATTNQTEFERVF
T4 sequence (O60563 whole entry partner): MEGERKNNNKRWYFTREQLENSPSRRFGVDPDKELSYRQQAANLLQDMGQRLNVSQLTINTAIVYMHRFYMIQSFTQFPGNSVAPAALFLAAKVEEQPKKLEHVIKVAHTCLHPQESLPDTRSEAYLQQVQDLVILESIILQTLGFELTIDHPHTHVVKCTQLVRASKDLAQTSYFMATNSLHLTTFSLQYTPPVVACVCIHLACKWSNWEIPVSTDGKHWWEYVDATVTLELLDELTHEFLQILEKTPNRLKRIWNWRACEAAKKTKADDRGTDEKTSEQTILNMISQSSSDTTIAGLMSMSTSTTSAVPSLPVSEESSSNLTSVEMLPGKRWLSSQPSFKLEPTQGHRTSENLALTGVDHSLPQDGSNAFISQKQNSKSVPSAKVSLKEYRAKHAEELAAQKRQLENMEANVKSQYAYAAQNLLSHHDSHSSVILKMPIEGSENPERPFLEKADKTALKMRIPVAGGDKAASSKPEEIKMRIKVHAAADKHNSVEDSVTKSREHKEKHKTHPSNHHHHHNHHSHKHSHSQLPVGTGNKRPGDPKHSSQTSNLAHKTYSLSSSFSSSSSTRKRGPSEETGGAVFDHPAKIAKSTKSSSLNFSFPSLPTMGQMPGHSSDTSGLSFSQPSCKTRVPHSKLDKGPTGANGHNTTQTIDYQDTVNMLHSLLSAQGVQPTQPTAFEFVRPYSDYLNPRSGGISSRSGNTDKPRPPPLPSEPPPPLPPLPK
T2 sequence (P50750 whole entry): as the sequence (P50750 whole entry) above

For orientation: IC50 means the concentration that inhibits the measured activity by half. `COc1ccccc1-c1ccnc(Nc2cccc(CS(N)(=O)=O)c2)c1` [Compound G2, [3-((4-(2-Methoxyphenyl)pyridin-2-yl)amino)phenyl]-methanesulfonamide]: the values for the Kd on CDK7/CyclinH/MAT1 [1], at CDK2/CyclinA [2] and at CDK9/Cyclin T1 were > 10 µM, < 100 nM and < 100 nM, respectively. For the same compound, the half-inhibitory concentration (IC50) on CDK9 was < 100 nM; at CDK2/CyclinA [3] it was 100 to 1000 nM; on CDK7/CyclinH/MAT1 [4], > 10 µM.

With `COc1ccccc1-c1ccnc(Nc2cccc(CCS(N)(=O)=O)c2)c1` [Compound H1, 2-[3-((4-(2-Methoxyphenyl)pyridin-2-yl)amino)phenyl]-ethanesulfonamide], the results for the Kd at CDK7/CyclinH/MAT1 [1], at CDK2/CyclinA [2] and at CDK9/Cyclin T1 were > 10 µM, 100 to 1000 nM and < 100 nM, respectively. Moreover, the IC50 is < 100 nM at CDK9, 1000 to 10000 nM at CDK2/CyclinA [3] and > 10 µM at CDK7/CyclinH/MAT1 [4].

As to `COc1cc(F)ccc1-c1ccnc(Nc2cccc(S(=O)(=O)NC(C)(C)C)c2)c1` [Compound D2, N-(tert-Butyl)-3-[(4-(4-fluoro-2-methoxyphenyl)pyridin-2-yl)amino]-benzenesulfonamide], the Kd was > 10 µM on CDK7/CyclinH/MAT1 [1] and 1000 to 10000 nM on CDK9/Cyclin T1.
